Columns and labels:
Assay in all cases: relative viability (nuclei count vs DMSO), 5 days (fraction); higher = more cells survive
NCI-H2085 = tested on: NCI-H2085
In short: (§1)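 Dosing by pin tool came one day after lung cancer cell lines were seeded in 1536-well plates, using either one drug or a fixed anchor-drug dose plus five library-drug doses (not always all listed) in √10 steps. After 5 days, nuclei were counted on 4× images. Relative viability is treated-well nuclei count divided by vehicle-well nuclei count, and values are medians of duplicate plates.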

LCLC-103H = tested on: LCLC-103H
In short: as §1

NCI-H838 = tested on: NCI-H838
In short: as §1

NCI-H1395 = tested on: NCI-H1395
In short: as §1

NCI-H2405 = tested on: NCI-H2405
In short: as §1

LU99A = tested on: LU99A
In short: as §1

EPLC-272H = tested on: EPLC-272H
In short: as §1

NCI-H650 = tested on: NCI-H650
In short: as §1

NCI-H2023 = tested on: NCI-H2023
In short: as §1

NCI-H1793 = tested on: NCI-H1793
In short: as §1

NCI-H1563 = tested on: NCI-H1563
In short: as §1

NCI-H2087 = tested on: NCI-H2087
In short: as §1

HCC-827 = tested on: HCC-827
In short: as §1

COR-L23 = tested on: COR-L23
In short: as §1

HCC-44 = tested on: HCC-44
In short: as §1

SK-MES-1 = tested on: SK-MES-1
In short: as §1

EMC-BAC-2 = tested on: EMC-BAC-2
In short: as §1

NCI-H1944 = tested on: NCI-H1944
In short: as §1

NCI-H520 = tested on: NCI-H520
In short: as §1

NCI-H1651 = tested on: NCI-H1651
In short: as §1

H3255 = tested on: H3255
In short: as §1

With Nc1ccn([C@@H]2O[C@H](CO)[C@@H](O)[C@@H]2O)c(=O)n1 [Cytarabine] + Cc1nc(NC(=O)N2CCC[C@H]2C(N)=O)sc1-c1ccnc(C(C)(C)C(F)(F)F)c1 [Alpelisib] (partner 2 µM) the relative viability (NCI-H2085; first compound 0.005 µM) was 0.936, the relative viability (NCI-H2085; first compound 0.01581 µM) was 0.827 and the relative viability (NCI-H2085; first compound 0.05 µM) was 0.869. It also gave a relative viability (NCI-H2085; first compound 0.1581 µM) of 0.62, a relative viability (NCI-H2085; first compound 0.5 µM) of 0.558 and a relative viability (LCLC-103H; first compound 0.005 µM) of 0.988. The relative viability (LCLC-103H; first compound 0.01581 µM) was 0.906, the relative viability (LCLC-103H; first compound 0.05 µM) was 1.02 and the relative viability (LCLC-103H; first compound 0.1581 µM) was 0.967. The relative viability (LCLC-103H; first compound 0.5 µM) was 0.809, the relative viability (NCI-H838; first compound 0.005 µM) was 0.886 and the relative viability (NCI-H838; first compound 0.01581 µM) was 1.12. It also gave a relative viability (NCI-H838; first compound 0.05 µM) of 0.909, a relative viability (NCI-H838; first compound 0.1581 µM) of 0.452 and a relative viability (NCI-H838; first compound 0.5 µM) of 0.252. For the same compound, the relative viability (NCI-H1395; first compound 0.005 µM) was 1.04, the relative viability (NCI-H1395; first compound 0.01581 µM) was 0.858 and the relative viability (NCI-H1395; first compound 0.05 µM) was 0.583. For the same compound, the relative viability (NCI-H1395; first compound 0.1581 µM) was 0.423, the relative viability (NCI-H1395; first compound 0.5 µM) was 0.441 and the relative viability (NCI-H2405; first compound 0.005 µM) was 0.771. It also gave a relative viability (NCI-H2405; first compound 0.01581 µM) of 0.657, a relative viability (NCI-H2405; first compound 0.05 µM) of 0.512 and a relative viability (NCI-H2405; first compound 0.1581 µM) of 0.527. For the same compound, the relative viability (NCI-H2405; first compound 0.5 µM) was 0.301, the relative viability (LU99A; first compound 0.005 µM) was 0.519 and the relative viability (LU99A; first compound 0.01581 µM) was 0.565. The relative viability (LU99A; first compound 0.05 µM) was 0.51, the relative viability (LU99A; first compound 0.1581 µM) was 0.5 and the relative viability (LU99A; first compound 0.5 µM) was 0.406. The relative viability (EPLC-272H; first compound 0.005 µM) was 0.7, the relative viability (EPLC-272H; first compound 0.01581 µM) was 0.781 and the relative viability (EPLC-272H; first compound 0.05 µM) was 0.609. For the same compound, the relative viability (EPLC-272H; first compound 0.1581 µM) was 0.345, the relative viability (EPLC-272H; first compound 0.5 µM) was 0.337 and the relative viability (NCI-H650; first compound 0.005 µM) was 0.732. For the same compound, the relative viability (NCI-H650; first compound 0.01581 µM) was 0.81, the relative viability (NCI-H650; first compound 0.05 µM) was 0.468 and the relative viability (NCI-H650; first compound 0.1581 µM) was 0.218. For the same compound, the relative viability (NCI-H650; first compound 0.5 µM) was 0.224, the relative viability (NCI-H2023; first compound 0.005 µM) was 0.489 and the relative viability (NCI-H2023; first compound 0.01581 µM) was 0.391. For the same compound, the relative viability (NCI-H2023; first compound 0.05 µM) was 0.182, the relative viability (NCI-H2023; first compound 0.1581 µM) was 0.117 and the relative viability (NCI-H2023; first compound 0.5 µM) was 0.0764. It also gave a relative viability (NCI-H1793; first compound 0.005 µM) of 0.573, a relative viability (NCI-H1793; first compound 0.01581 µM) of 0.687 and a relative viability (NCI-H1793; first compound 0.05 µM) of 0.691. It also gave a relative viability (NCI-H1793; first compound 0.1581 µM) of 0.389, a relative viability (NCI-H1793; first compound 0.5 µM) of 0.251 and a relative viability (NCI-H1563; first compound 0.005 µM) of 0.938. It also gave a relative viability (NCI-H1563; first compound 0.01581 µM) of 1.02, a relative viability (NCI-H1563; first compound 0.05 µM) of 0.845 and a relative viability (NCI-H1563; first compound 0.1581 µM) of 0.888. It also gave a relative viability (NCI-H1563; first compound 0.5 µM) of 0.663, a relative viability (NCI-H2087; first compound 0.005 µM) of 0.962 and a relative viability (NCI-H2087; first compound 0.01581 µM) of 1.1. The relative viability (NCI-H2087; first compound 0.05 µM) was 0.899, the relative viability (NCI-H2087; first compound 0.1581 µM) was 0.666 and the relative viability (NCI-H2087; first compound 0.5 µM) was 0.452. The relative viability (HCC-827; first compound 0.005 µM) was 0.697, the relative viability (HCC-827; first compound 0.01581 µM) was 0.448 and the relative viability (HCC-827; first compound 0.05 µM) was 0.467. It also gave a relative viability (HCC-827; first compound 0.1581 µM) of 0.242, a relative viability (HCC-827; first compound 0.5 µM) of 0.197 and a relative viability (COR-L23; first compound 0.005 µM) of 0.63. It also gave a relative viability (COR-L23; first compound 0.01581 µM) of 0.472, a relative viability (COR-L23; first compound 0.05 µM) of 0.458 and a relative viability (COR-L23; first compound 0.1581 µM) of 0.176. The relative viability (COR-L23; first compound 0.5 µM) was 0.104, the relative viability (HCC-44; first compound 0.005 µM) was 0.806 and the relative viability (HCC-44; first compound 0.01581 µM) was 0.726. For the same compound, the relative viability (HCC-44; first compound 0.05 µM) was 0.586, the relative viability (HCC-44; first compound 0.1581 µM) was 0.429 and the relative viability (HCC-44; first compound 0.5 µM) was 0.517. It also gave a relative viability (SK-MES-1; first compound 0.005 µM) of 0.702, a relative viability (SK-MES-1; first compound 0.01581 µM) of 0.688 and a relative viability (SK-MES-1; first compound 0.05 µM) of 0.393. For the same compound, the relative viability (SK-MES-1; first compound 0.1581 µM) was 0.243, the relative viability (SK-MES-1; first compound 0.5 µM) was 0.21 and the relative viability (EMC-BAC-2; first compound 0.005 µM) was 0.64. It also gave a relative viability (EMC-BAC-2; first compound 0.01581 µM) of 0.658, a relative viability (EMC-BAC-2; first compound 0.05 µM) of 0.598 and a relative viability (EMC-BAC-2; first compound 0.1581 µM) of 0.193. For the same compound, the relative viability (EMC-BAC-2; first compound 0.5 µM) was 0.182, the relative viability (NCI-H1944; first compound 0.005 µM) was 0.563 and the relative viability (NCI-H1944; first compound 0.01581 µM) was 0.361. For the same compound, the relative viability (NCI-H1944; first compound 0.05 µM) was 0.364, the relative viability (NCI-H1944; first compound 0.1581 µM) was 0.183 and the relative viability (NCI-H1944; first compound 0.5 µM) was 0.144. The relative viability (NCI-H520; first compound 0.005 µM) was 0.697, the relative viability (NCI-H520; first compound 0.01581 µM) was 0.754 and the relative viability (NCI-H520; first compound 0.05 µM) was 0.858. The relative viability (NCI-H520; first compound 0.1581 µM) was 0.688, the relative viability (NCI-H520; first compound 0.5 µM) was 0.447 and the relative viability (NCI-H1651; first compound 0.005 µM) was 0.817. It also gave a relative viability (NCI-H1651; first compound 0.01581 µM) of 1.01, a relative viability (NCI-H1651; first compound 0.05 µM) of 1.17 and a relative viability (NCI-H1651; first compound 0.1581 µM) of 0.401. It also gave a relative viability (NCI-H1651; first compound 0.5 µM) of 0.261, a relative viability (H3255; first compound 0.005 µM) of 0.757 and a relative viability (H3255; first compound 0.01581 µM) of 0.673. It also gave a relative viability (H3255; first compound 0.05 µM) of 0.566, a relative viability (H3255; first compound 0.1581 µM) of 0.524 and a relative viability (H3255; first compound 0.5 µM) of 0.469.
